Experimental data from US20210009557A1, “ACYCLIC CXCR4 INHIBITORS AND USES THEREOF” (X4 Pharmaceuticals, Inc., priority 2017, published 2021).

Key:
[1] = target: T1, CXCR-4 transfected U87 cell line (U87.CXCR4) (Homo sapiens, UniProt P61073); test: Intracellular CXCL-12-induced calcium mobilization assay (FLIPR); format: cell-based; conditions: U87.CXCR4 cells; CXCL-12 25-50 ng/mL; compounds added 15 minutes before; read-out: IC50 CXCL-12 Ca2+ flux U87.CXCR4+
T1 construct: expressed in transfected cells; host or cells: U87 cell line (U87.CXCR4)
Experimental: Intracellular calcium mobilization induced by chemokines orchemokine-derived peptides were evaluated using a calcium responsive fluorescent probe and a FLIPR system. The CXCR-4 transfected U87 cell line (U87.CXCR4) cells were seeded in gelatine-coated black-wall 96-well plates at 20,000 cells per well and incubated for 12 hours. Cells were then loaded with the fluorescent calcium probe Fluo-2 acetoxymethyl at 4 μM final concentration in assay buffer (Hanks' balanced salt solution with 20 mM HEPES buffer and 0.2% bovine serum albumin, pH 7.4) for 45 min at 37′C. The intracellular calcium mobilization induced by the CXCL-12 (25-50 ng/mL) was then measured at 37° C. by monitoring the fluorescence as a function of time in all the wells simultaneously using a fluorometric imaging plate reader (FLIPR Tetra, Molecular Devices).

in vitro = conditions: human, Caco-2, pH 7.4
Experimental: The goal of this assay was to evaluate the intestinal absorption potential of drug candidates using Caco-2 cell lines.
Experimental Procedure • 1. Pre-warm Pre-warm HBSS Buffer in 37° C. water bath • 2. Sonicate Take compounds from −20° C., sonicate for a few minutes (no less than 1 minute) • 3. Solution preparation
For A-to-B Direction: • HBSS buffer with 0.3% DMSO and 5 μM LY: add 150 μL DMSO and 50 μL LY (5 mM) into 50 ml HBSS buffer (pH 7.4). • HBSS buffer with 0.1% DMSO and 5 μM LY: add 50 μL DMSO and 50 μL LY (5 mM) into 50 mL HBSS buffer (pH 7.4).
For B-to-A Direction: • HBSS buffer with 0.3% DMSO: add 150 μL DMSO into 50 ml HBSS buffer (pH 7.4). HBSS buffer with 0.1% DMSO: add 50 μL DMSO into 50 ml HBSS buffer (pH 7.4).
For A-to-B Direction: • Prepare HBSS buffer with 0.4% DMSO: add 200 μL DMSO into 50 ml HBSS buffer (pH 7.4).
For B-to-A Direction: • Prepare HBSS buffer with 0.4% DMSO and 5 μM LY: add 200 μL DMSO and 50 μL LY (5 mM) into 50 ml HBSS buffer (pH 7.4).
• 4. Measure TEER Take cell culture plate out of incubator, wash the cell monolayers with HBSS buffer, and then measure TEER values at Rm temperature. • 5. Centrifuge Centrifuge the compound solution (from step 3) at 4000 rpm for 5 min before loading to donor chambers. • 6. Dosing Add solution based on the volumes listed in the following table (make sure to take extra 100 μL of donor sample for T0 as Backup).
• 7. Apical LYTO samples To determine LY concentration in the apical chamber, take 100 μL sample from apical chambers into an opaque plate for LYTO. • 8. Pre-warm Pre-warm apical and basolateral plates at 37° C. for about 5 min, then begin transport by placing the apical plate onto basolateral plate. • 9. Incubation Keep the plates in incubator at 37° C. for 90 min. • 10.
• Prepare 1× solution: • 3 μL (20×)+57 μL of 0.4% DMSO HBSS+60 μL ACN with IS (Osalmid or Imipramine)—120 μL (1×) • 11. Transport termination Separate the apical plate from the basolateral plate after 90-min incubation. • 12. Measure LY Take 100 μL samples from basolateral plate to an opaque plate as LYT90. • 13. Measure LY concentrations for LYTO and LYT90 by Fluorometer (at excitation of 485 nm/emission of 535 nm). • 14.
Drug permeability: Papp=(VA/(Area×time))×([drug]accepter/(([drug]initial, donor)×Dilution Factor) • Where VA is the volume in the acceptor well, area is the surface area of the membrane and time is the total transport time in seconds.
For Millicell-24 Cell Culture Plates: surface area of the membrane=0.7 cm^2, VA=0.8 mL (A-to-B) or 0.4 mL (B-to-A)

[2] = target: T2, Jurkat cells expressing CXCR4 (Homo sapiens, UniProt P61073); test: Chemokine (CXCL12-AF647) binding inhibition assay; conditions: CXCL12-AF647 25 ng/mL, read-out: IC50 CXCL-12 binding Jurkat
T2 construct: Jurkat cells expressing CXCR4; endogenous in cells; host or cells: Jurkat cells
Experimental: Jurkat cells expressing CXCR4 were washed once with assay buffer (Hanks' balanced salt solution with 20 mM HEPES buffer and 0.2% bovine serum albumin, pH 7.4) and then incubated for 15 min at room temperature with the test compounds diluted in assay buffer at dose-dependent concentrations. Subsequently, CXCL12-AF647 (25 ng/mL) was added to the compound-incubated cells. The cells were incubated for 30 min at room temperature. Thereafter, the cells were washed twice in assay buffer, fixed in 1% paraformaldehyde in PBS, and analyzed on the FL4 channel of a FACSCalibur flow cytometer equipped with a 635-nm red diode laser (Becton Dickinson, San Jose, Calif., USA).
The percentages of inhibition of CXCL12-AF647 binding were calculated according to the formula: [1−((MFI−MFINC)/(MFIPC−MFINC))]×100 where MFI is the mean fluorescence intensity of the cells incubated with CXCL12-AF647 in the presence of the inhibitor, MFINC is the mean fluorescence intensity measured in the negative control (i.e., autofluorescence of unlabeled cells), and MFIPC is the mean fluorescence intensity of the positive control (i.e., cells exposed to CXCL12-AF647 alone).

T1 sequence (P61073 whole entry): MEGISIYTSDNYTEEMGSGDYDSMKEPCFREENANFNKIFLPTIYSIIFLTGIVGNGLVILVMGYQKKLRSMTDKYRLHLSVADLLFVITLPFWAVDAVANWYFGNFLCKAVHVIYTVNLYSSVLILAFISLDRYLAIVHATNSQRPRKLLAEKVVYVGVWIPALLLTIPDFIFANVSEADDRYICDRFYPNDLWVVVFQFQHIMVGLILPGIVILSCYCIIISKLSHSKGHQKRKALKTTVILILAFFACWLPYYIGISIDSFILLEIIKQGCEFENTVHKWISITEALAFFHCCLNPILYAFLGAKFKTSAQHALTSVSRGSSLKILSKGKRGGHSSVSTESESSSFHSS
T2 sequence (P61073 whole entry): as above

| IC50 [1] [nM] | Papp A→B at 90 min, 10 μM (in vitro) [×10⁻⁶ cm/s] | Papp B→A at 90 min, 10 μM (in vitro) [×10⁻⁶ cm/s] | efflux ratio at 90 min, 10 μM (in vitro) | IC50 [2] [nM] | Compound |
| --- | --- | --- | --- | --- | --- |
| ≥ 1000 | 5 to 10 | > 10 | 10 to 30 | 0.01 to 100 | Cc1cccnc1CN(CCC(N)=O)[C@H]1CCCc2cccnc21 [Compound I-23] |
| ≥ 1000 | > 10 | > 10 | 0.1 to 10 | 0.01 to 100 | NC(=O)CCN(Cc1ncccc1Cl)[C@H]1CCCc2cccnc21 [Compound I-24] |
| 0.01 to 100 | < 5 | > 10 | 10 to 30 | 0.01 to 100 | Cn1c(CN(CCc2c[nH]cn2)[C@H]2CCCc3cccnc32)nc2ccccc21 [Compound I-25] |
| ≥ 1000 | < 5 | > 10 | 10 to 30 | 0.01 to 100 | Cc1cccnc1CN(CCc1c[nH]cn1)[C@H]1CCCc2cccnc21 [Compound I-26] |
| ≥ 1000 | 5 to 10 | > 10 | 0.1 to 10 | 0.01 to 100 | Clc1cccnc1CN(CCc1c[nH]cn1)[C@H]1CCCc2cccnc21 [Compound I-27, (S)—N-(2-(1H-imidazol-4-yl)ethyl)-N-((3-chloropyridin-2-yl)methyl)-5,6,7,8-tetrahydroquinolin-8-amine] |
| 100 to 1000 | > 10 | > 10 | 0.1 to 10 | 0.01 to 100 | Clc1cccnc1CN(CCc1cnc[nH]1)Cc1ncccc1Cl [Compound I-28] |
| 0.01 to 100 | > 10 | > 10 | 0.1 to 10 | 0.01 to 100 | COc1cccc(CCN(Cc2ncccc2C)Cc2ncccc2C)n1 [Compound I-31, 2-(6-Methoxypyridin-2-yl)-N,N-bis((3-methylpyridin-2-yl)methyl)ethan-1-amine] |
| ≥ 1000 | > 10 | > 10 | 0.1 to 10 | 0.01 to 100 | COc1ccc(CCN(Cc2ncccc2C)Cc2ncccc2C)nc1 [Compound I-32] |
| ≥ 1000 | > 10 | > 10 | 0.1 to 10 | 0.01 to 100 | COc1ccnc(CCN(Cc2ncccc2C)Cc2ncccc2C)c1 [Compound I-33] |
| 100 to 1000 | 5 to 10 | > 10 | 0.1 to 10 | 0.01 to 100 | Cc1cccnc1CN(CCc1cnc[nH]1)Cc1ncccc1C(C)C [Compound I-34] |
| 100 to 1000 | > 10 | > 10 | 0.1 to 10 | 0.01 to 100 | CC(C)c1cccnc1CN(CCc1cnc[nH]1)Cc1ncccc1Cl [Compound I-35] |
| 0.01 to 100 | < 5 | > 10 | 10 to 30 | 0.01 to 100 | Cc1cccnc1CN(CCc1cnc[nH]1)Cc1nccc2ccccc12 [Compound I-36] |
| 0.01 to 100 | 5 to 10 | > 10 | 0.1 to 10 | 0.01 to 100 | Clc1cccnc1CN(CCc1cnc[nH]1)Cc1nccc2ccccc12 [Compound I-37] |
| ≥ 1000 | 5 to 10 | > 10 | 0.1 to 10 | 100 to 1000 | CC(C)c1cccnc1CN(CCc1cnc[nH]1)Cc1ncccc1C(C)C [Compound I-38] |
| ≥ 1000 | > 10 | > 10 | 0.1 to 10 | 0.01 to 100 | Clc1cccnc1CN(CCc1cnc[nH]1)Cc1ncccc1-c1ccccc1 [Compound I-39] |
| ≥ 1000 | < 5 | > 10 | 10 to 30 | 0.01 to 100 | Cc1cccnc1CN(CCc1c[nH]cn1)Cc1nc2cccc(F)c2n1C [Compound I-40] |
| 100 to 1000 | < 5 | > 10 | > 30 | 0.01 to 100 | Cc1cccnc1CN(CCc1c[nH]cn1)Cc1nc2ccc(F)cc2n1C [Compound I-41] |
| ≥ 1000 | < 5 | > 10 | > 30 | 0.01 to 100 | Cc1cccnc1CN(CCc1c[nH]cn1)Cc1nc2cc(F)ccc2n1C [Compound I-42] |
| 0.01 to 100 | 5 to 10 | > 10 | 0.1 to 10 | 0.01 to 100 | Cc1cccnc1CN(CCc1c[nH]cn1)Cc1nc2c(F)cccc2n1C [Compound I-43, N-((4-fluoro-1-methyl-1H-benzo[d]imidazol-2-yl)methyl)-2-(1H-imidazol-4-yl)-N-((3-methylpyridin-2-yl)methyl)ethan-1-amine] |
| 0.01 to 100 | 5 to 10 | > 10 | 0.1 to 10 | 0.01 to 100 | Cn1c(CN(CCc2c[nH]cn2)[C@H]2CCCc3cccnc32)nc2cccc(F)c21 [Compound I-44] |
| ≥ 1000 | < 5 | > 10 | 0.1 to 10 | 0.01 to 100 | Cn1c(CN(CCc2c[nH]cn2)[C@H]2CCCc3cccnc32)nc2cc(F)ccc21 [Compound I-45] |
| ≥ 1000 | > 10 | > 10 | 0.1 to 10 | 0.01 to 100 | Cc1cccnc1CN(CCC(N)=O)Cc1ncccc1-c1ccccc1 [Compound I-46] |
| ≥ 1000 | > 10 | > 10 | 0.1 to 10 | 100 to 1000 | CC(C)c1cccnc1CN(CCC(N)=O)Cc1ncccc1-c1ccccc1 [Compound I-47] |
| ≥ 1000 | < 5 | > 10 | 0.1 to 10 | 0.01 to 100 | CC(C)c1cccnc1CN(CCC(N)=O)[C@H]1CCCc2cccnc21 [Compound I-48] |
| 100 to 1000 | 5 to 10 | > 10 | 0.1 to 10 | 0.01 to 100 | NC(=O)CCN(Cc1nccc2ccccc12)[C@H]1CCCc2cccnc21 [Compound I-49] |
